From patent publication US9163012B2, “Carbamate and urea inhibitors of 11β-hydroxysteroid dehydrogenase 1” (Vitae Pharmaceuticals, Inc., priority 2009, dated 2015) come the findings set out here.

Structures are written as SMILES. Where two headings read alike, the source gives them in different places.

One may read the IC50 as the concentration at which inhibition is half-maximal. In general, inhibition refers to the share of the control response that was lost under treatment.

The experiment concerns the target 11β-HSD1 (Homo sapiens (Human), UniProt P28845). Nature of the experiment: Biological Test Example 1: inhibition of a microsomal preparation of 11β-HSD1 (SPA). As to conditions: for Average % inhibition at 100 nM / IC50: Biological Test Example 1; for Average % inhibition at 100 nM / inhibition at 0.1 µM: 100 nM compound; for inhibition at 0.1 µM: read-out: Average % inhibition at 100 nM, Biological Test Example 1. It counts as biochemical. On the procedure:
All reactions were carried out at rt in 96 well clear flexible PET Microbeta plates (PerkinElmer). […] After a 10 minute pre-incubation, 50 μL of enzyme solution containing microsomes isolated from CHO cells overexpressing human 11-HSD1 (10-20 μg/ml of total protein) was added, and the plates were incubated for 90 minutes at rt. The reaction was stopped by adding 50 μl of the SPA beads suspension containing 10 μM […], 5 mg/ml protein A coated YSi SPA beads (GE Healthcare) and 3.3 μg/ml of anti-cortisol antibody (East Coast Biologics) in Superblock buffer (Bio-Rad). The plates were shaken for 120 minutes at rt, and the SPA signal corresponding to [^3H]cortisol was measured on a Microbeta plate reader.

Setting [1] is: microsomes from CHO cells overexpressing human 11β-HSD1, read-out: IC50 Range.

Sequence of 11β-HSD1 (P28845 whole entry): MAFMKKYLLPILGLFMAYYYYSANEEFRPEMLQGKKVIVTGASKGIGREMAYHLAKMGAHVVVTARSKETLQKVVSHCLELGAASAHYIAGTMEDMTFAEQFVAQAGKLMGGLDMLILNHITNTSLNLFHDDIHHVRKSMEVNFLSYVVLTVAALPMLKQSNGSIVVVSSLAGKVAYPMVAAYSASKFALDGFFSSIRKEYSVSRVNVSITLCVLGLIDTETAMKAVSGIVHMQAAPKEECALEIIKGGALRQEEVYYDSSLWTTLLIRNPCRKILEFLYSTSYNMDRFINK

For `NC(=O)[C@]12CC3CC(C1)[C@@H](OC(=O)N1CCC(c4ncc(Cl)cn4)C1)C(C3)C2` (single isomer, unassigned) [EXAMPLE 26 Isomer 1a, (1-carbamoyl-4-adamantyl) 3-(5-chloropyrimidin-2-yl)pyrrolidine-1-carboxylate], the “Average % inhibition at 100 nM” value was determined as 102.6%. For the same compound, the IC50 under setting [1] is under 100 nM. In addition, the IC50 (read-out: IC50) amounted to 1.15 nM.

As for `O=C(OC1C2CC3CC1CC(O)(C3)C2)N1CCC(c2ccncc2)C1` (centres unmarked) [EXAMPLE 21, 1-hydroxy-4-adamantyl 3-(pyridin-4-yl)pyrrolidine-1-carboxylate], the inhibition at 0.1 µM was 81.4%. The IC50 under setting [1] is under 100 nM. In addition, the IC50 (read-out: IC50) was 20.8 nM.

Take `Cn1c(=O)n([C@H]2CCN(C(=O)O[C@H]3C4CC5CC3C[C@](C(N)=O)(C5)C4)C2)c2c(Cl)cccc21` [EXAMPLE 71, (S)-trans-1-carbamoyl-4-adamantyl 3-(7-chloro-3-methyl-2-oxo-2,3-dihydro-1H-benzo[d]imidazol-1-yl)pyrrolidine-1-carboxylate]: the inhibition at 0.1 µM worked out at 96.6%. Under setting [1], the IC50 is under 100 nM. In addition, where the note is “read-out: IC50”, the IC50 was determined as 0.67 nM.

For the compound `O=C(OC1C2CC3CC(C2)CC1C3)N1CCC[C@@H]1c1nc(-c2cc[n+]([O-])cc2)cs1` (stereo partly drawn) [EXAMPLE 52, (R)-4-(2-(1-((2-adamantyloxy)carbonyl)pyrrolidin-2-yl)thiazol-4-yl)pyridine 1-oxide], the inhibition at 0.1 µM stood at 95.1%. Further, under setting [1], the IC50 is under 100 nM. The IC50 (read-out: IC50) came out at 1.19 nM.

For `O=C(OC1C2CC3CC1CC(O)(C3)C2)N1CCC(c2cc[n+]([O-])cc2)C1` (centres unmarked) [EXAMPLE 22, 4-(1-((1-hydroxy-4-adamantyloxy)carbonyl)pyrrolidin-3-yl)pyridine 1-oxide], the inhibition at 0.1 µM stood at 3.7%. Besides, under setting [1], the IC50 was over 100 nM. In addition, for the setting “read-out: IC50”, the IC50 was 100 nM.

With `O=C(OC1C2CC3CC1CC(C(=O)O)(C3)C2)N1CCC(c2ncc(Cl)cn2)C1` (single isomer, unassigned) [EXAMPLE 46 Isomer 1, trans-4-((3-(5-chloropyrimidin-2-yl)pyrrolidine-1-carbonyl)oxy)adamantane-1-carboxylic acid], the “Average % inhibition at 100 nM” value came to 22.4%. Under setting [1], the IC50 was over 100 nM. The IC50 (read-out: IC50) is over 100 nM.

For the compound `NC(=O)[C@]12CC3CC(C1)[C@@H](OC(=O)N1CC[C@@H](Oc4ncc(F)cc4F)C1)C(C3)C2` (relative stereo) [EXAMPLE 1, (R)-(trans-(1-carbamoyl-4-adamantyl)) 3-(3,5-difluoropyridin-2-yloxy)pyrrolidine-1-carboxylate], the “Average % inhibition at 100 nM” value is recorded as 95.53%. Besides, the IC50 under setting [1] is under 100 nM. Besides, the concentration for half-maximal inhibition (IC50) (read-out: IC50) worked out at 1.54 nM.

As to `NC(=O)[C@]12CC3CC(C1)[C@@H](OC(=O)N1CC[C@@H](Oc4ccc(C(F)(F)F)cn4)C1)C(C3)C2` [EXAMPLE 5, (R)-(trans-(1-carbamoyl-4-adamantyl)) 3-(5-(trifluoromethyl)pyridin-2-yloxy)pyrrolidine-1-carboxylate], the inhibition at 0.1 µM is 94.9%. Besides, the IC50 under setting [1] was under 100 nM. Besides, the IC50 (read-out: IC50) amounted to 0.99 nM.

For the compound `Cn1ccc(-c2cnc(C3CCN(C(=O)OC4C5CC6CC4CC(C(N)=O)(C6)C5)C3)nc2)cc1=O` (single isomer, unassigned) [EXAMPLE 57 Isomer 2, 1-carbamoyl-4-adamantyl 3-(5-(1-methyl-2-oxo-1,2-dihydropyridin-4-yl)pyrimidin-2-yl)pyrrolidine-1-carboxylate], the inhibition at 0.1 µM is 18.1%. Besides, under setting [1], the IC50 is over 100 nM. In addition, the IC50 (read-out: IC50) is over 100 nM.

For the compound `Cc1cnc(C2CCN(C(=O)OC3C4CC5CC3CC(C(N)=O)(C5)C4)C2)nc1` (single isomer, unassigned) [EXAMPLE 39 Isomer 2, 1-carbamoyl-4-adamantyl 3-(5-methylpyrimidin-2-yl)pyrrolidine-1-carboxylate], the “Average % inhibition at 100 nM” value stood at 1.8%. Also, the IC50 under setting [1] is over 100 nM. The IC50 (read-out: IC50) is over 100 nM.

In the case of `Cc1nc2cc(C#N)ccc2n1[C@H]1CCN(C(=O)OC2C3CC4CC2CC(C(N)=O)(C4)C3)C1` (stereo partly drawn) [EXAMPLE 75, (S)-1-carbamoyl-4-adamantyl 3-(5-cyano-2-methyl-1H-benzo[d]imidazol-1-yl)pyrrolidine-1-carboxylate], the inhibition at 0.1 µM is 39.1%. In addition, the IC50 under setting [1] was under 100 nM. Also, where the note is “read-out: IC50”, the IC50 was 5.03 nM.

As for `O=C(OC1C2CC3CC(C2)CC1C3)N1CCC[C@@H]1c1nc(-c2ccncc2)cs1` (stereo partly drawn) [EXAMPLE 50, (R)-2-adamantyl 2-(4-(pyridin-4-yl)thiazol-2-yl)pyrrolidine-1-carboxylate], the inhibition at 0.1 µM was 98.2%. For the same compound, the IC50 under setting [1] is under 100 nM. Further, the half-inhibitory concentration (IC50) (read-out: IC50) stood at 0.91 nM.

For the compound `NC(=O)[C@]12CC3CC(C1)[C@@H](OC(=O)N1CCCC1c1ncc(Cl)cn1)C(C3)C2` (some centres unmarked) [EXAMPLE 45, 1-carbamoyl-4-adamantyl 2-(5-chloropyrimidin-2-yl)pyrrolidine-1-carboxylate], the inhibition at 0.1 µM stood at 87.5%. Besides, the IC50 under setting [1] was under 100 nM. The IC50 (read-out: IC50) stood at 13.5 nM.

As to `NC(=O)C12CC3CC(C1)C(OC(=O)N1CCC(c4ncc(F)cn4)C1)C(C3)C2` (single isomer, unassigned) [EXAMPLE 41 Isomer 1, 1-carbamoyl-4-adamantyl 3-(5-fluoropyrimidin-2-yl)pyrrolidine-1-carboxylate], the “Average % inhibition at 100 nM” value is listed as 92.3%.

Consider `Cc1ccc(C2CCN(C(=O)OC3C4CC5CC3CC(C(N)=O)(C5)C4)C2)nn1` (single isomer, unassigned) [EXAMPLE 37 Isomer 2], for which the “Average % inhibition at 100 nM” value came to 13.3%.

`Cn1c(C2CCCN2C(=O)OC2C3CC4CC2CC(C(N)=O)(C4)C3)nc2ccccc21` (centres unmarked) [EXAMPLE 32, (1-carbamoyl-4-adamantyl) 2-(1-methyl-1H-benzo[d]imidazol-2-yl)pyrrolidine-1-carboxylate]: the inhibition at 0.1 µM is 94.7%. For the same compound, the IC50 under setting [1] was under 100 nM. Further, the IC50 (read-out: IC50) worked out at 1.08 nM.

Turning to `Cn1c(=O)n([C@@H]2CCN(C(=O)O[C@H]3C4CC5CC3C[C@](C(N)=O)(C5)C4)C2)c2ncc(Cl)cc21` [EXAMPLE 29, (R) (trans-1-carbamoyl-4-adamantyl) 3-(6-chloro-1-methyl-2-oxo-1H-imidazo[4,5-b]pyridin-3(2H)-yl)pyrrolidine-1-carboxylate], the inhibition at 0.1 µM was determined as 99.2%. Moreover, the IC50 under setting [1] was under 100 nM. Besides, the IC50 (read-out: IC50) is 1 nM.

For the compound `Cn1cc(-c2cnc(C3CCN(C(=O)OC4C5CC6CC4CC(C(N)=O)(C6)C5)C3)nc2)ccc1=O` (single isomer, unassigned) [EXAMPLE 58 Isomer 2, 1-carbamoyl-4-adamantyl 3-(5-(1-methyl-6-oxo-1,6-dihydropyridin-3-yl)pyrimidin-2-yl)pyrrolidine-1-carboxylate], the “Average % inhibition at 100 nM” value came to 3.8%. Also, the 50% inhibitory concentration (IC50) under setting [1] was over 100 nM. Also, the IC50 (read-out: IC50) was over 100 nM.

With `Cn1c(C2CCN(C(=O)O[C@H]3C4CC5CC3C[C@](C(N)=O)(C5)C4)C2)nc2ccccc21` (stereo partly drawn) [EXAMPLE 31, (trans-1-carbamoyl-4-adamantyl) 3-(1-methyl-1H-benzo[d]imidazol-2-yl)pyrrolidine-1-carboxylate], the inhibition at 0.1 µM is 44.1%. Also, under setting [1], the IC50 is under 100 nM. Moreover, the IC50 (read-out: IC50) came to 91.7 nM.
